For this assay, the system named is CD2F1 mice, ip Colon 26 adenocarcinoma, median survival T/C. Description: NCI In Vivo Anticancer Drug Screen. Data for tumor model Colon 26 Adenocarcinoma (intraperitoneal) in CD2F1 (CDF1) mice. The following applies: endpoint: median survival time, higher = longer survival. On the procedure:
The antitumor activity of compounds was measured in mice bearing transplantable tumors. Survival or tumor size were measured and the results are expressed as the measurement made in the treated group (T) divided by the measurement made in the vehicle treated control group (C). The tumor model used in this assay is Colon 26 Adenocarcinoma (intraperitoneal) in CD2F1 (CDF1) mice

The mark [1] stands for this setting: dose: 100.0 mg/kg/injection, schedule: Q04DX003 (ip), vehicle: Klucel (hydroxypropylcellulose) (HPC).

Values joined by “and” are separate entries in the source; they are usually repeats but may differ in a detail not shown here. Equal entries are not always repeated. Toxic doses and inconclusive results are not listed.

As to `COc1cc2c3cc1Oc1c(O)c(OC)cc4c1[C@H](Cc1ccc(cc1)Oc1cc(ccc1O)C[C@H]3N(C)CC2)N(C)CC4`, the T/C is, setting by setting: (dose: 5.0 mg/kg/injection, schedule: Q04DX003 (ip), vehicle: distilled water + Tween-80) 95 % of control; (dose: 10.0 mg/kg/injection, schedule: Q04DX003 (ip), vehicle: distilled water + Tween-80) 103 % of control; (dose: 20.0 mg/kg/injection, schedule: Q04DX003 (ip), vehicle: distilled water + Tween-80) 97 % of control; (dose: 40.0 mg/kg/injection, schedule: Q04DX003 (ip), vehicle: distilled water + Tween-80) 115 % of control; (dose: 40.0 mg/kg/injection, schedule: Q04DX003 (ip), vehicle: saline with Tween-80) 95 % of control.
On to `O=P1(N(CCCl)CCCl)NCCCO1` (stereo unspecified), for which the T/C runs as follows: (dose: 50.0 mg/kg/injection, schedule: Q03DX002 (ip), vehicle: saline) 106 % of control; (dose: 51.0 mg/kg/injection, schedule: Q07DX003 (ip), vehicle: saline) 119 % of control; (dose: 100.0 mg/kg/injection, schedule: Q03DX002 (ip), vehicle: saline) 117 % of control; (dose: 105.0 mg/kg/injection, schedule: Q07DX003 (ip), vehicle: saline) 154 % of control; (dose: 150.0 mg/kg/injection, schedule: Q07DX003 (ip), vehicle: saline) 165 % of control.
Consider `COc1cccc2c1C(=O)c1c(O)c3c(c(O)c1C2=O)C[C@@](O)(C(C)=O)C[C@@H]3OC1CC(N(C)C)C(O)C(C)O1` (stereo partly specified), for which the T/C (dose: 4.5 mg/kg/injection, schedule: Q07DX002 (iv), vehicle: saline) was 109 % of control; the T/C (dose: 5.4 mg/kg/injection, schedule: Q04DX003 (ip), vehicle: water) was 119 % of control; the T/C (dose: 7.0 mg/kg/injection, schedule: Q07DX002 (iv), vehicle: saline) is 114 % of control; the T/C (dose: 11.0 mg/kg/injection, schedule: Q07DX002 (iv), vehicle: saline) is 113 % of control; the T/C (dose: 15.0 mg/kg/injection, schedule: Q04DX003 (ip), vehicle: water) is 88 % of control; the T/C (dose: 18.0 mg/kg/injection, schedule: Q07DX002 (iv), vehicle: saline) was 109 % of control. Moreover, the T/C reads like this: (dose: 27.0 mg/kg/injection, schedule: Q07DX002 (iv), vehicle: saline) 108 % of control; (dose: 41.0 mg/kg/injection, schedule: Q07DX002 (iv), vehicle: saline) 94 % of control.
Take `O=C(O)C1(C(=O)O)CCC1.[NH2-].[NH2-].[Pt+2]`: the T/C was 96 % of control (dose: 5.85 mg/kg/injection, schedule: Q04DX003 (iv), vehicle: saline); 102 % of control (dose: 8.78 mg/kg/injection, schedule: Q04DX003 (iv), vehicle: saline); 110 % of control (dose: 10.0 mg/kg/injection, schedule: Q01DX004 (ip), vehicle: saline); 105 % of control (dose: 11.7 mg/kg/injection, schedule: Q01DX001 (ip), vehicle: saline); 105 % of control (dose: 13.2 mg/kg/injection, schedule: Q04DX003 (iv), vehicle: saline); 102 % of control (dose: 17.6 mg/kg/injection, schedule: Q01DX001 (ip), vehicle: saline). Also, the T/C by setting is: (dose: 17.6 mg/kg/injection, schedule: Q01DX001 (iv), vehicle: saline) 91 % of control; (dose: 19.8 mg/kg/injection, schedule: Q04DX003 (ip), vehicle: saline) 171 % of control; (dose: 19.8 mg/kg/injection, schedule: Q04DX003 (iv), vehicle: saline) 117 % of control; (dose: 20.0 mg/kg/injection, schedule: Q01DX004 (ip), vehicle: saline) 225 % of control; (dose: 25.0 mg/kg/injection, schedule: Q04DX003 (ip), vehicle: dextrose) 203 % of control; (dose: 26.3 mg/kg/injection, schedule: Q01DX001 (ip), vehicle: saline) 109 % of control and 217 % of control. The T/C runs as follows: (dose: 26.3 mg/kg/injection, schedule: Q01DX001 (iv), vehicle: saline) 118 % of control and 94 % of control; (dose: 29.6 mg/kg/injection, schedule: Q04DX003 (ip), vehicle: saline) 225 % of control; (dose: 29.6 mg/kg/injection, schedule: Q04DX003 (iv), vehicle: saline) 162 % of control; (dose: 30.0 mg/kg/injection, schedule: Q04DX004 (iv), vehicle: other) 154 % of control; (dose: 33.0 mg/kg/injection, schedule: Q04DX002 (iv), vehicle: other) 109 % of control; (dose: 39.5 mg/kg/injection, schedule: Q01DX001 (ip), vehicle: saline) 168 % of control. Also, the T/C is 95 % of control (dose: 39.5 mg/kg/injection, schedule: Q01DX001 (iv), vehicle: saline); 380 % of control (dose: 40.0 mg/kg/injection, schedule: Q01DX004 (ip), vehicle: saline); 226 % of control (dose: 44.0 mg/kg/injection, schedule: Q04DX004 (iv), vehicle: other); 257 % of control (dose: 44.4 mg/kg/injection, schedule: Q04DX003 (ip), vehicle: saline); 188 % of control (dose: 44.4 mg/kg/injection, schedule: Q04DX003 (iv), vehicle: saline); 228 % of control (dose: 50.0 mg/kg/injection, schedule: Q04DX003 (ip), vehicle: dextrose). Besides, the T/C runs as follows: (dose: 59.3 mg/kg/injection, schedule: Q01DX001 (ip), vehicle: saline) 217 % of control; (dose: 59.3 mg/kg/injection, schedule: Q01DX001 (iv), vehicle: saline) 103 % of control and 118 % of control; (dose: 60.0 mg/kg/injection, schedule: Q01DX004 (ip), vehicle: saline) 324 % of control; (dose: 65.0 mg/kg/injection, schedule: Q04DX004 (iv), vehicle: other) 253 % of control; (dose: 66.7 mg/kg/injection, schedule: Q04DX003 (ip), vehicle: saline) 151 % of control; (dose: 87.0 mg/kg/injection, schedule: Q04DX002 (iv), vehicle: other) 183 % of control. Besides, the T/C (dose: 88.9 mg/kg/injection, schedule: Q01DX001 (ip), vehicle: saline) was 217 % of control and 257 % of control; the T/C (dose: 88.9 mg/kg/injection, schedule: Q01DX001 (iv), vehicle: saline) was 102 % of control; the T/C (dose: 100.0 mg/kg/injection, schedule: Q04DX003 (ip), vehicle: saline) was 257 % of control; the T/C (dose: 100.0 mg/kg/injection, schedule: Q04DX003 (iv), vehicle: saline) is 168 % of control; the T/C (dose: 133.0 mg/kg/injection, schedule: Q01DX001 (ip), vehicle: saline) is 217 % of control and 257 % of control; the T/C (dose: 133.0 mg/kg/injection, schedule: Q01DX001 (iv), vehicle: saline) is 121 % of control and 257 % of control. For the same compound, the T/C (dose: 200.0 mg/kg/injection, schedule: Q01DX001 (ip), vehicle: saline) was 217 % of control and 257 % of control.
On to `CCCC(=O)OCc1cc(=O)n(C)c2c3c4c(cc12)c(C)cc(=O)n4CO3`, for which the T/C is, setting by setting: (dose: 6.25 mg/kg/injection, schedule: Q04DX003 (ip), vehicle: Klucel (hydroxypropylcellulose) (HPC)) 98 % of control; (dose: 12.5 mg/kg/injection, schedule: Q04DX003 (ip), vehicle: Klucel (hydroxypropylcellulose) (HPC)) 104 % of control; (dose: 25.0 mg/kg/injection, schedule: Q04DX003 (ip), vehicle: Klucel (hydroxypropylcellulose) (HPC)) 123 % of control; under setting [1], 152 % of control.
For the compound `COCC1OC(OC2C3=C(C(C)C)CCC3(C)/C=C3\C(CCC3(O)COC)C(C)C2O)C(O)C2OC3OC12OC3(C)C1CO1` (stereo unspecified), the T/C is 105 % of control and 94 % of control (dose: 0.78 mg/kg/injection, schedule: Q04DX002 (ip), vehicle: Klucel (hydroxypropylcellulose) (HPC)); 104 % of control and 106 % of control (dose: 1.56 mg/kg/injection, schedule: Q04DX002 (ip), vehicle: Klucel (hydroxypropylcellulose) (HPC)); 109 % of control and 95 % of control (dose: 3.12 mg/kg/injection, schedule: Q04DX002 (ip), vehicle: Klucel (hydroxypropylcellulose) (HPC)); 116 % of control and 89 % of control and 100 % of control (dose: 6.25 mg/kg/injection, schedule: Q04DX002 (ip), vehicle: Klucel (hydroxypropylcellulose) (HPC)); 103 % of control and 104 % of control and 98 % of control (dose: 12.5 mg/kg/injection, schedule: Q04DX002 (ip), vehicle: Klucel (hydroxypropylcellulose) (HPC)).
For the compound `CCOC(=O)C1C2OC(=O)C(C(=O)C2CN(CCCl)CCCl)C1C1CC=C(CC2=CCC(C3C4C(=O)OC(C(CN(CCCl)CCCl)C4=O)C3C(=O)OCC)CC2)CC1` (stereo unspecified), the T/C reads like this: under setting [1], 216 % of control; (dose: 200.0 mg/kg/injection, schedule: Q04DX003 (ip), vehicle: Klucel (hydroxypropylcellulose) (HPC)) 232 % of control.

Source of the values: PubChem BioAssay AID210 (DTP/NCI, 2004).
